The results in this text go back to article PMC10763615, “Identification and engineering of potent cyclic peptides with selective or promiscuous binding through biochemical profiling and bioinformatic data analysis” (RSC Chemical Biology, 2023).

SMILES strings stand for the structures. Where two headings read alike, the source gives them in different places.

In experiment [1] the target is T1, FGFR3c/BKL (Fc-fused human FGF-R3alpha(IIIc) with beta-klotho) (Homo sapiens, UniProt P22607).
T1 sequence (P22607 23-375 limits assumed): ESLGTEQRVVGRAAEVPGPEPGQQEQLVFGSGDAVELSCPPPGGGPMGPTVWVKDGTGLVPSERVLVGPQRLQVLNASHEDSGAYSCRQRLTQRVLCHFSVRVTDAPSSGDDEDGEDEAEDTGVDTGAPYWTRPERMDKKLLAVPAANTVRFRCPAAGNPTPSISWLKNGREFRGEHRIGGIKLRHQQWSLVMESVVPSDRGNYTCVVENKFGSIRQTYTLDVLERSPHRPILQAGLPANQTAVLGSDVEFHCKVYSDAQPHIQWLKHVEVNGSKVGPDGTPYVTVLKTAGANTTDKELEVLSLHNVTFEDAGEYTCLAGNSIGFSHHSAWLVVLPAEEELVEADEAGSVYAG
Nature of the experiment: AlphaScreen FGF21 competitive binding assay.
Experimental: Alphascreen binding assay
The competitive binding assay was carried out according to the methods detailed in Hansen. et al using
AlphaScreen.3 All reagents and samples were prepared in assay buffer: 40mM Hepes, 140mM NaCl, 1mM
CaCl2, 0,05% Tween20, pH=7.5, 0.1% BSA. In brief, recombinant human beta-klotho (R&D Systems) was
preincubated for 60 min with the ectodomain, either Fc-fused human FGF-R1alpha(IIIc), FGF-R3alpha(IIIc)
or FGF-R4 (R&D Systems), and the mixture was added to the test peptides in OptiPlate™ (PerkinElmer).
Biotinylated FGF21 and heparin were further added to each well. AlphaScreen bead mix (1:1 mix of Protein
A acceptor beads/ streptavidin-coated donor beads, PerkinElmer) were added to each well incubated
overnight at RT in the dark, and measured on a plate reader (Envision). Assays were carried out in triplicates
with concentrations ranging from 3, 10, 30, 100, 300 ,1000 and 3000 nM of peptide. No peptide control
(media only) was used as a negative control, and unlabeled FGF21 and FGF1 as positive control.
competing with biotinylated natural FGF21 ligand.

The target in experiment [2] is T2, FGF-R3C ECD (Homo sapiens, UniProt P22607).
T2 sequence (P22607 23-375 limits assumed): T1 sequence (P22607 23-375 limits assumed)
Nature of the experiment: biochemical. The gist of the method: (§1)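 Biolayer interferometry with biotinylated FGF-R ECD on streptavidin biosensors in PBS pH 7.4, 0.05% Tween-20, 0.01% BSA. Multi-concentration: purified peptide dilution series fitted to a multi-point KD model.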

The target in experiment [3] is T3, FGF-R1C ECD (Homo sapiens, UniProt P11362).
T3 sequence (P11362 22-376 limits assumed): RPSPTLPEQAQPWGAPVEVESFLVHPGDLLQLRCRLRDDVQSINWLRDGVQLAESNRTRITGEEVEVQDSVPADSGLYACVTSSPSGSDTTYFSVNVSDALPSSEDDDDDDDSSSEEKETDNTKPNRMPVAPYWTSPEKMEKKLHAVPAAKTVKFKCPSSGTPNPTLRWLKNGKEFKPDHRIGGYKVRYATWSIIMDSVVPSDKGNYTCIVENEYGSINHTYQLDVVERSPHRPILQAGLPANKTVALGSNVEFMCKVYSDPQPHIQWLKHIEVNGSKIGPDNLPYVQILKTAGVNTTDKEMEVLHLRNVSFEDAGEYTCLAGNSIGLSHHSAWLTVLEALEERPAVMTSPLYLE
Nature of the experiment: biochemical. A digest of the protocol:
as §1

Experiment [4] addresses T4, FGF-R4 ECD (Homo sapiens, UniProt P22455).
T4 construct: DNA constructs for the extracellular domain (ECD) of human FGF-; HPC4 (C); made in house; host or cells: HEK 293-6E
T4 sequence (P22455 22-369 limits assumed): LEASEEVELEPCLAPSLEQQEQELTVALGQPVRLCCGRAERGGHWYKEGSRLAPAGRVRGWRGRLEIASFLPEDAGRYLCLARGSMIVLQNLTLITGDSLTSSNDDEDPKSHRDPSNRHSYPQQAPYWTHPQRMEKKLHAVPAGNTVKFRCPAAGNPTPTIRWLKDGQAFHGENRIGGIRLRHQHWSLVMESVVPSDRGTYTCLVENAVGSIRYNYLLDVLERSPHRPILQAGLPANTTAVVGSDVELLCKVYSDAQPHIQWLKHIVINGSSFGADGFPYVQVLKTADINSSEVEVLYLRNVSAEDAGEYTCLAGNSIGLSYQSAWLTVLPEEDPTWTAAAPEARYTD
Put plainly: multi-concentration BLI of purified peptides. Conditions: purified NNK library peptides. In kind it is binding. A digest of the protocol: as §1

For experiment [5], the target named is T4, FGF-R4 ECD. Put plainly: single concentration BLI of crude peptides. In kind it is binding. Conditions: crude NNK peptides, single concentration BLI (Table S3); read-out: KD (4). A digest of the protocol:
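Biotinylated FGF-R ECD on streptavidin biosensors was dipped into ~1 μM crude peptide in PBS pH7.4 with 0.05% Tween-20 and 0.01% BSA for association, then into buffer for dissociation, and followed by BLI. Fitted KD values were adjusted for peptide concentration measured by UPLC-CAD.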

Experiment [6] addresses T2, FGF-R3C ECD. Nature of the experiment: biochemical. In kind it is binding. The arrangement: DNA constructs for the extracellular domain (ECD) of human FGF-; HPC4 (C); made in house; host or cells: HEK 293-6E. A digest of the protocol: as §1
Experiment [7] concerns the target T3, FGF-R1C ECD. Nature of the experiment: biochemical. In kind it is binding. The arrangement: DNA constructs for the extracellular domain (ECD) of human FGF-; HPC4 (C); made in house; host or cells: HEK 293-6E. A digest of the protocol:
as §1

Experiment [8] deals with T5, FGFR1c/KLB (Fc-fused human FGF-R1alpha(IIIc) with beta-klotho) (Homo sapiens, UniProt P11362).
T5 sequence (P11362 22-376 limits assumed): T3 sequence (P11362 22-376 limits assumed)
Nature of the experiment: AlphaScreen FGF21 competitive binding assay. For orientation: Bead proximity is the source of the signal in Alpha formats.

In experiment [9] the target is T6, FGFR4/KLB (Fc-fused human FGF-R4 with beta-klotho) (Homo sapiens, UniProt P22455).
T6 sequence (P22455 22-369 limits assumed): T4 sequence (P22455 22-369 limits assumed)
Put plainly: AlphaScreen FGF21 competitive binding assay.

The term IC50 denotes the concentration that gives 50% inhibition. One may read the Kd as the free concentration of one partner at which half of the binding sites on the other are occupied at equilibrium, for simple one-to-one binding. In the case of `CC[C@H](C)[C@@H]1NC(=O)[C@H](Cc2c[nH]c3ccccc23)NC(=O)[C@@H]2CCCN2C(=O)[C@H](CCC(=O)O)NC(=O)[C@@H](NC(=O)[C@H](CCSC)NC(C)=O)CSSC[C@@H](C(=O)NCC(=O)N[C@@H](CO)C(=O)NCC(=O)N[C@@H](CO)C(=O)N[C@@H](CC(=O)O)C(=O)N[C@@H](Cc2ccc(O)cc2)C(=O)N[C@@H](CCCCN)C(=O)N[C@@H](CC(=O)O)C(=O)N[C@@H](CC(=O)O)C(=O)N[C@@H](CC(=O)O)C(=O)N[C@@H](CC(=O)O)C(=O)N[C@@H](CCCCN)C(N)=O)NC(=O)[C@H](CCCCN)NC(=O)[C@H](CCCCN)NC(=O)[C@H](CC(C)C)NC(=O)[C@H](C(C)C)NC(=O)[C@H](CCCCN)NC(=O)[C@H](Cc2ccc(O)cc2)NC(=O)[C@H]([C@@H](C)CC)NC(=O)[C@H]([C@@H](C)O)NC1=O` [4.8], the IC50 was greater than 1000 nM in experiment [1], greater than 1000 nM in experiment [8] and 945 nM in experiment [9]. In addition, the Kd at FGF-R3C ECD [2] was greater than 1000 nM; on FGF-R1C ECD [3], greater than 1000 nM; on FGF-R4 ECD [4], 478 nM; at FGF-R4 ECD [5] it was 287 nM; at FGF-R3C ECD [6] it was 1250 nM; on FGF-R1C ECD [7], greater than 10000 nM.

With `CC[C@H](C)[C@@H]1NC(=O)[C@@H](NC(=O)[C@@H](N)CCSC)CSSC[C@@H](C(=O)NCC(=O)N[C@@H](CO)C(=O)NCC(=O)N[C@@H](CO)C(=O)N[C@@H](CC(=O)O)C(=O)N[C@@H](Cc2ccc(O)cc2)C(=O)N[C@@H](CCCCN)C(=O)N[C@@H](CC(=O)O)C(=O)N[C@@H](CC(=O)O)C(=O)N[C@@H](CC(=O)O)C(=O)N[C@@H](CC(=O)O)C(=O)N[C@@H](CCCCN)C(N)=O)NC(=O)[C@H](CC(C)C)NC(=O)[C@H](Cc2c[nH]c3ccccc23)NC(=O)[C@H](Cc2ccccc2)NC(=O)[C@H](CC(C)C)NC(=O)[C@@H]2CCCN2C(=O)[C@H](CCC(N)=O)NC(=O)[C@H](CCCNC(=N)N)NC(=O)[C@H](C)NC(=O)[C@@H]2CCCN2C(=O)[C@H](Cc2c[nH]c3ccccc23)NC(=O)[C@H](CCCNC(=N)N)NC1=O` [1C.9], the results for the IC50 in [1], in [8] and in experiment [9] were 15 nM, 17 nM and 67 nM, respectively. Besides, the Kd at FGF-R3C ECD [2] was determined as 47 nM; on FGF-R1C ECD [3] it was 1 nM; at FGF-R4 ECD [4], 82 nM; at FGF-R4 ECD [5], 82 nM; on FGF-R3C ECD [6] it was 112 nM; at FGF-R1C ECD [7] it was 19 nM.

As to `CSCC[C@H](NC(C)=O)C(=O)N[C@H]1CSSC[C@@H](C(=O)NCC(=O)N[C@@H](CO)C(=O)NCC(=O)N[C@@H](CO)C(=O)N[C@@H](CC(=O)O)C(=O)N[C@@H](Cc2ccc(O)cc2)C(=O)N[C@@H](CCCCN)C(=O)N[C@@H](CC(=O)O)C(=O)N[C@@H](CC(=O)O)C(=O)N[C@@H](CC(=O)O)C(=O)N[C@@H](CC(=O)O)C(=O)N[C@@H](CCCCN)C(N)=O)NC(=O)[C@H](CC(C)C)NC(=O)[C@H](Cc2c[nH]c3ccccc23)NC(=O)[C@H](C)NC(=O)[C@H](Cc2ccccc2)NC(=O)[C@H](Cc2ccccc2)NC(=O)[C@H](Cc2c[nH]c3ccccc23)NC(=O)[C@@H]2CCCN2C(=O)[C@H](Cc2c[nH]cn2)NC(=O)[C@H](CCCCN)NC(=O)[C@H](Cc2ccccc2)NC1=O` [4.5], the IC50 in [1] was greater than 1000 nM; in experiment [8], greater than 1000 nM; in experiment [9], 284 nM. Further, the Kd at FGF-R3C ECD [2] is greater than 1000 nM; on FGF-R1C ECD [3], greater than 1000 nM; at FGF-R4 ECD [4], 233 nM; at FGF-R4 ECD [5] it was 35 nM; at FGF-R3C ECD [6], greater than 10000 nM; on FGF-R1C ECD [7], greater than 10000 nM.

`CSCC[C@H](NC(C)=O)C(=O)N[C@H]1CSSC[C@@H](C(=O)NCC(=O)N[C@@H](CO)C(=O)NCC(=O)N[C@@H](CO)C(=O)N[C@@H](CC(=O)O)C(=O)N[C@@H](Cc2ccc(O)cc2)C(=O)N[C@@H](CCCCN)C(=O)N[C@@H](CC(=O)O)C(=O)N[C@@H](CC(=O)O)C(=O)N[C@@H](CC(=O)O)C(=O)N[C@@H](CC(=O)O)C(=O)N[C@@H](CCCCN)C(N)=O)NC(=O)[C@H](C(C)C)NC(=O)[C@H](CC(C)C)NC(=O)[C@H](CC(C)C)NC(=O)[C@H](Cc2c[nH]c3ccccc23)NC(=O)[C@H](Cc2ccc(O)cc2)NC(=O)[C@H](Cc2ccccc2)NC(=O)[C@H](CC(C)C)NC(=O)[C@H](CCCNC(=N)N)NC(=O)[C@H](CCC(=O)O)NC(=O)[C@@H]2CCCN2C1=O` [4.7]: the IC50 in [1], in [8] and in [9] was greater than 1000 nM throughout. Besides, the Kd is greater than 1000 nM on FGF-R3C ECD [2]; greater than 1000 nM at FGF-R1C ECD [3]; 443 nM on FGF-R4 ECD [4]; 68 nM on FGF-R4 ECD [5]; greater than 10000 nM at FGF-R3C ECD [6]; greater than 10000 nM at FGF-R1C ECD [7].

As to `CC[C@H](C)[C@@H]1NC(=O)[C@H](Cc2ccccc2)NC(=O)[C@@H]2CCCN2C(=O)[C@H](C(C)C)NC(=O)[C@H](Cc2ccccc2)NC(=O)[C@H](CO)NC(=O)[C@H](CC(=O)O)NC(=O)[C@H](Cc2ccccc2)NC(=O)[C@H](CC(C)C)NC(=O)[C@@H](NC(=O)[C@@H](N)CCSC)CSSC[C@@H](C(=O)NCC(=O)N[C@@H](CO)C(=O)NCC(=O)N[C@@H](CO)C(=O)N[C@@H](CC(=O)O)C(=O)N[C@@H](Cc2ccc(O)cc2)C(=O)N[C@@H](CCCCN)C(=O)N[C@@H](CC(=O)O)C(=O)N[C@@H](CC(=O)O)C(=O)N[C@@H](CC(=O)O)C(=O)N[C@@H](CC(=O)O)C(=O)N[C@@H](CCCCN)C(N)=O)NC(=O)[C@H](Cc2ccccc2)NC1=O` [3C.3], the IC50 is 95 nM in experiment [1] (read-out: R3C competitive IC50, purified peptides, Alphascreen vs biotinylated FGF21); greater than 1000 nM in [8] (read-out: R1C competitive IC50, purified peptides, Alphascreen vs biotinylated FGF21); greater than 1000 nM in [9] (read-out: R4 competitive IC50, purified peptides, Alphascreen vs biotinylated FGF21). Besides, the Kd at FGF-R3C ECD [2] (read-out: R3C KD, purified NNK library peptides, multi-concentration BLI) is 21 nM; at FGF-R1C ECD [3] (read-out: R1C KD, purified NNK library peptides, multi-concentration BLI) it was greater than 1000 nM; at FGF-R4 ECD [4], greater than 1000 nM; at FGF-R4 ECD [5], greater than 10000 nM; at FGF-R3C ECD [6] (read-out: KD(3C)), 29 nM; at FGF-R1C ECD [7] (read-out: KD (1C)), greater than 10000 nM.
